ChEMBL document CHEMBL5442175, “EUbOPEN Chemogenomics Library - PDSP Secondary Binding” (2024)
Counter-ions that a name gives are not always drawn.

Key:
[1] = target: T1, 5-hydroxytryptamine receptor 1A (Homo sapiens, UniProt P08908); assay: (§1) PDSP Secondary Binding target: HTR1A - Compounds are tested at 10 uM concentration, plate are incubated at room temperature in the dark for 90 minutes. Reaction are stopped by vacuum filtration onto 0.3% polyethyleneimine soaked filter mats using Filtermate harvester. Scintillation cocktail is then melted onto microwave-dried filters on a hot plate and the radio activity is counted in Microbia counter.
T1 sequence (P08908 whole entry): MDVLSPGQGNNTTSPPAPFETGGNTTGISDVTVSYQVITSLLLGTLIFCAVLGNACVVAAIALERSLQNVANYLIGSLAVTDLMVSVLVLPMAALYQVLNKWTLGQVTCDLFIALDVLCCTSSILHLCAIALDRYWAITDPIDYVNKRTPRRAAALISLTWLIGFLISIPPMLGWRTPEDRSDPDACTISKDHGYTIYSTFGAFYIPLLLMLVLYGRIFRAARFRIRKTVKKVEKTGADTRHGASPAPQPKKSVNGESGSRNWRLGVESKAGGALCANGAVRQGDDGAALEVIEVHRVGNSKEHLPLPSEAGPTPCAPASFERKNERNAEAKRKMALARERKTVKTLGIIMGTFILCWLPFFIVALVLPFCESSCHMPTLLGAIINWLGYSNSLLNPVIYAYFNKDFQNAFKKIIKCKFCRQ

[2] = target: 5-hydroxytryptamine receptor 5A (Homo sapiens, UniProt P47898); assay: as §1, with “HTR5A” for “HTR1A”
[3] = target: Sodium-dependent noradrenaline transporter (Homo sapiens, UniProt P23975); assay: as §1, with “SLC6A2” for “HTR1A”
[4] = target: Sigma intracellular receptor 2 (Homo sapiens, UniProt Q5BJF2); assay: as §1, with “TMEM97” for “HTR1A”
[5] = target: Kappa-type opioid receptor (Homo sapiens, UniProt P41145); assay: as §1, with “OPRK1” for “HTR1A”
[6] = target: Sigma non-opioid intracellular receptor 1 (Homo sapiens, UniProt Q99720); assay: as §1, with “SIGMAR1” for “HTR1A”
[7] = target: Beta-3 adrenergic receptor (Homo sapiens, UniProt P13945); assay: as §1, with “ADRB3” for “HTR1A”
Mu-type opioid receptor = Mu-type opioid receptor (Homo sapiens, UniProt P35372); assay: as §1, with “OPRM1” for “HTR1A”
[8] = target: 5-hydroxytryptamine receptor 2B (Homo sapiens, UniProt P41595); assay: as §1, with “HTR2B” for “HTR1A”
[9] = target: T2, Alpha-2B adrenergic receptor (Homo sapiens, UniProt P18089); assay: as §1, with “ADRA2B” for “HTR1A”
T2 sequence (P18089 whole entry): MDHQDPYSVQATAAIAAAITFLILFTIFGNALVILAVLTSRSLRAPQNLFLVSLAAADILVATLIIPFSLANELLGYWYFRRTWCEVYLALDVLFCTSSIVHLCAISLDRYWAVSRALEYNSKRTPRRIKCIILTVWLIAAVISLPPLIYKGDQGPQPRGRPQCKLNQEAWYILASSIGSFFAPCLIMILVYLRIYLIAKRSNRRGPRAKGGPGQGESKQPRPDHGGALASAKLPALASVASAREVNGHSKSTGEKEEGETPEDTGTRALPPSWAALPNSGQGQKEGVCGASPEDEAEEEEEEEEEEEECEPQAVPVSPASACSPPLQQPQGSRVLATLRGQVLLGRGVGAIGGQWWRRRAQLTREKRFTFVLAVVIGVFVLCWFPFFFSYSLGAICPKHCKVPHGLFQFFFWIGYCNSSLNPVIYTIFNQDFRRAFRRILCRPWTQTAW

[10] = target: T3, Alpha-2C adrenergic receptor (Homo sapiens, UniProt P18825); assay: as §1, with “ADRA2C” for “HTR1A”
T3 sequence (P18825 whole entry): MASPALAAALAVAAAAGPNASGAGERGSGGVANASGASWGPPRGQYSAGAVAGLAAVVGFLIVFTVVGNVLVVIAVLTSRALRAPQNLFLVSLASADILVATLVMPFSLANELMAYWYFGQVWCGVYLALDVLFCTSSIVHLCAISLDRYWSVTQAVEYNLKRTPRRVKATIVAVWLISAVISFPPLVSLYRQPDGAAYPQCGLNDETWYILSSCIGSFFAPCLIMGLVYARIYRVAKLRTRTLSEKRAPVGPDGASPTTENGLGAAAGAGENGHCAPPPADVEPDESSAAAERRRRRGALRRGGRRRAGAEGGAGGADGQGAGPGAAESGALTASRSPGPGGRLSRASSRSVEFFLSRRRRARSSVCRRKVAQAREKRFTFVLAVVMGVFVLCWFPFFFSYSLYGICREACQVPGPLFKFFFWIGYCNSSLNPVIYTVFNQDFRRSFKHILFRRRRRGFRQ

D(3) dopamine receptor = D(3) dopamine receptor (Homo sapiens, UniProt P35462); assay: as §1, with “DRD3” for “HTR1A”
[11] = target: T4, 5-hydroxytryptamine receptor 2C (Homo sapiens, UniProt P28335); assay: as §1, with “HTR2C” for “HTR1A”
T4 sequence (P28335 whole entry): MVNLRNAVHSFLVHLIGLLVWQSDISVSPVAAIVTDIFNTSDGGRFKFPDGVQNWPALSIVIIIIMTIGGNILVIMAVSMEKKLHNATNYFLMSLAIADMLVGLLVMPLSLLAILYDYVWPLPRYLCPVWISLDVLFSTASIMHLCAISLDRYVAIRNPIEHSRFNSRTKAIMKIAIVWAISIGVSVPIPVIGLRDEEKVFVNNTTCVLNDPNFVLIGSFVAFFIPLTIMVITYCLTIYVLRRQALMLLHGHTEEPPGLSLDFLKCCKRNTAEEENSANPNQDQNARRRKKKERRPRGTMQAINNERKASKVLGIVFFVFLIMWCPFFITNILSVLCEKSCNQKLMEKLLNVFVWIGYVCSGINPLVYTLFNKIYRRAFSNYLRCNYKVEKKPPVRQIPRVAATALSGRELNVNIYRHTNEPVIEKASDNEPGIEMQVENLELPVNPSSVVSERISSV

Histamine H1 receptor = Histamine H1 receptor (Homo sapiens, UniProt P35367); assay: as §1, with “HRH1” for “HTR1A”
[12] = target: 5-hydroxytryptamine receptor 2A (Homo sapiens, UniProt P28223); assay: as §1, with “HTR2A” for “HTR1A”
[13] = target: 5-hydroxytryptamine receptor 6 (Homo sapiens, UniProt P50406); assay: as §1, with “HTR6” for “HTR1A”
Histamine H2 receptor = Histamine H2 receptor (Homo sapiens, UniProt P25021); assay: as §1, with “HRH2” for “HTR1A”
[14] = target: 5-hydroxytryptamine receptor 1D (Homo sapiens, UniProt P28221); assay: as §1, with “HTR1D” for “HTR1A”
[15] = target: 5-hydroxytryptamine receptor 7 (Homo sapiens, UniProt P34969); assay: as §1, with “HTR7” for “HTR1A”
[16] = target: T5, Alpha-1B adrenergic receptor (Homo sapiens, UniProt P35368); assay: as §1, with “ADRA1B” for “HTR1A”
T5 sequence (P35368 whole entry): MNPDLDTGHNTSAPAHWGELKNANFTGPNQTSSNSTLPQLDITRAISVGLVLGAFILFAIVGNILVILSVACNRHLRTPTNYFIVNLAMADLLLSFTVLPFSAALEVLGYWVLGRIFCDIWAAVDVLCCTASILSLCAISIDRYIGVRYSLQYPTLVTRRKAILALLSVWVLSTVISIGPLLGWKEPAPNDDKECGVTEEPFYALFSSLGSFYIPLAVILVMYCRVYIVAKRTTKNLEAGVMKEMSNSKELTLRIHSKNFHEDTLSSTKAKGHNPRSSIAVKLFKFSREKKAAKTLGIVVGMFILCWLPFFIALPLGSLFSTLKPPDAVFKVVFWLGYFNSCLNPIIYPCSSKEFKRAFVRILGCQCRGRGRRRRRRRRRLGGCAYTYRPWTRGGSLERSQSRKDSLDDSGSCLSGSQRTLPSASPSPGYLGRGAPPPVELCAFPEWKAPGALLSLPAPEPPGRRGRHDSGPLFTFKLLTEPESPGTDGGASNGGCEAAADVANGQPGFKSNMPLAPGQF

Sequence of D(3) dopamine receptor (P35462 whole entry): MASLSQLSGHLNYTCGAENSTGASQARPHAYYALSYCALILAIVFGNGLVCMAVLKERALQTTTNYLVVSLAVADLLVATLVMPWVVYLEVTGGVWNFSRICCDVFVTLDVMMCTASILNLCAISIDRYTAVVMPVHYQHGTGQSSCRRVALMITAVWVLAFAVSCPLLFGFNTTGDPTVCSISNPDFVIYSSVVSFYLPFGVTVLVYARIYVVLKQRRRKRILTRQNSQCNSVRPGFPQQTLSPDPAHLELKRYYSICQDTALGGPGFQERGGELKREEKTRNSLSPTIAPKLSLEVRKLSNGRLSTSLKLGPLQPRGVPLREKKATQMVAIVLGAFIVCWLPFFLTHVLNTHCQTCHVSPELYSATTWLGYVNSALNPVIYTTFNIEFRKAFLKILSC
Sequence of 5-hydroxytryptamine receptor 2A (P28223 whole entry): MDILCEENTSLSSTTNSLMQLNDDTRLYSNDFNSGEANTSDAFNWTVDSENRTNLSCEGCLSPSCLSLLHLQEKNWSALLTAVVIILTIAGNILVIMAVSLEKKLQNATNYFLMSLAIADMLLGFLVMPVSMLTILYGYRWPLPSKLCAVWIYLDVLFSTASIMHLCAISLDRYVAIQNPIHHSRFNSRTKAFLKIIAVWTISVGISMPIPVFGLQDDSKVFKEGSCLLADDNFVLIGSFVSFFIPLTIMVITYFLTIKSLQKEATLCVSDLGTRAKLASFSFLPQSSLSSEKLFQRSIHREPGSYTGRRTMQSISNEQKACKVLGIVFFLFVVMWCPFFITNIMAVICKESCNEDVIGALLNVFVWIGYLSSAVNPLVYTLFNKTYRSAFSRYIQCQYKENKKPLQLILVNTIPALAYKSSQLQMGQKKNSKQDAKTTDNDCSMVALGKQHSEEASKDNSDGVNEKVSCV
Sequence of Sigma intracellular receptor 2 (Q5BJF2 whole entry): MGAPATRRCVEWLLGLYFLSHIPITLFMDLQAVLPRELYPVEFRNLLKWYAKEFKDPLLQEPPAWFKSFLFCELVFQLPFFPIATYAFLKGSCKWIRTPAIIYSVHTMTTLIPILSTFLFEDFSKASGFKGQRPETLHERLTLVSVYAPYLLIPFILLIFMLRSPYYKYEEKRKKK
Sequence of Kappa-type opioid receptor (P41145 whole entry): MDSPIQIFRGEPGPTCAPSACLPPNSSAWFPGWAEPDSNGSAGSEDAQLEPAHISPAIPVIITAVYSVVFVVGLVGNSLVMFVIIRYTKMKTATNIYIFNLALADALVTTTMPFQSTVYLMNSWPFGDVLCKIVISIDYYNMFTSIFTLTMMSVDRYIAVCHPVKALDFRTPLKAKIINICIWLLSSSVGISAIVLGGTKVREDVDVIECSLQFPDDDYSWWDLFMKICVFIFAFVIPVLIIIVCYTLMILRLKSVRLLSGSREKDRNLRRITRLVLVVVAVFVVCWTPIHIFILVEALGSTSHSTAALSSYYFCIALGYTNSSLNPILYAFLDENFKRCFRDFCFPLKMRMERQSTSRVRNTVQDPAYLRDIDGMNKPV
Sequence of 5-hydroxytryptamine receptor 6 (P50406 whole entry): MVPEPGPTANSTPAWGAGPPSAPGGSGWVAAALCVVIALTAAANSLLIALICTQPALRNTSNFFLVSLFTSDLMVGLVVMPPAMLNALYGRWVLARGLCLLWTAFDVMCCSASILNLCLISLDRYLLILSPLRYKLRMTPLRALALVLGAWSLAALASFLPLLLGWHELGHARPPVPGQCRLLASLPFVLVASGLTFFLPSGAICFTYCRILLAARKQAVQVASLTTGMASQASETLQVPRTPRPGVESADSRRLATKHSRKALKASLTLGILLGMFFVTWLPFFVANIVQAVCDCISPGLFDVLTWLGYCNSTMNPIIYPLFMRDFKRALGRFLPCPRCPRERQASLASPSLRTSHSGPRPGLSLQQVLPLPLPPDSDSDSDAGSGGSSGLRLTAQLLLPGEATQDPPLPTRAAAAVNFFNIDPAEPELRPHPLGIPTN
Sequence of Mu-type opioid receptor (P35372 whole entry): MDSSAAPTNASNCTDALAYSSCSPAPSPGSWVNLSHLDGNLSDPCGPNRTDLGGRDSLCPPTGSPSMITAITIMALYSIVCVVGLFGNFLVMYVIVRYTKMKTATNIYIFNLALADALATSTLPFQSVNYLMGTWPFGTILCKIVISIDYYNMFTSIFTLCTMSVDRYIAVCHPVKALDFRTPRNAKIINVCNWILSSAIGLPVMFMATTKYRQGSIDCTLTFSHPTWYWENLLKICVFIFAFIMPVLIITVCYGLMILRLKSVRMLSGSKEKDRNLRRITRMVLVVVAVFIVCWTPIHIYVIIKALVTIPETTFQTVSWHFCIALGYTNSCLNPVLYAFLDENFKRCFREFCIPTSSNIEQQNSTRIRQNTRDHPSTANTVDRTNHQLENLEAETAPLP
Sequence of 5-hydroxytryptamine receptor 5A (P47898 whole entry): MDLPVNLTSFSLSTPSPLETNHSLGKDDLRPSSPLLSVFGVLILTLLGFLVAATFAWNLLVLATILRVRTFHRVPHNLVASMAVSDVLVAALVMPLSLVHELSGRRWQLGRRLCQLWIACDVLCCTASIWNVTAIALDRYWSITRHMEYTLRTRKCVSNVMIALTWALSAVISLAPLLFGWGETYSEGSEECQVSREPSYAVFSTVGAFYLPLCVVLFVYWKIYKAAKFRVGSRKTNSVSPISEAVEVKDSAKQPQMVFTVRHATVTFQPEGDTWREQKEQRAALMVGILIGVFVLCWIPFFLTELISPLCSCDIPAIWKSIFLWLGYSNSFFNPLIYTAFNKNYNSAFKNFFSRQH
Sequence of 5-hydroxytryptamine receptor 2B (P41595 whole entry): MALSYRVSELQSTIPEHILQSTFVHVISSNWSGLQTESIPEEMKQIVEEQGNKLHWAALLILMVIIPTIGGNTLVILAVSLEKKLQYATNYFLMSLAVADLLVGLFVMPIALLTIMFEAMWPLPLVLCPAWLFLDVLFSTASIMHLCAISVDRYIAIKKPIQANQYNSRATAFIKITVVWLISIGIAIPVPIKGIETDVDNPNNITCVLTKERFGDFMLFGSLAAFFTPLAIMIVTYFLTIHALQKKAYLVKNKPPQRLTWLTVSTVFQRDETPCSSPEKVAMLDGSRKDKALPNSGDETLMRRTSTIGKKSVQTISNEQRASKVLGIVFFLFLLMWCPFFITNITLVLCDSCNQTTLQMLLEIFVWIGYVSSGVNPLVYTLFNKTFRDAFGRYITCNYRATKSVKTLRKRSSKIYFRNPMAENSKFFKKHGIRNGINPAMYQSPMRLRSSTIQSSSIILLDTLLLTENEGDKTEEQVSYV
Sequence of Sodium-dependent noradrenaline transporter (P23975 whole entry): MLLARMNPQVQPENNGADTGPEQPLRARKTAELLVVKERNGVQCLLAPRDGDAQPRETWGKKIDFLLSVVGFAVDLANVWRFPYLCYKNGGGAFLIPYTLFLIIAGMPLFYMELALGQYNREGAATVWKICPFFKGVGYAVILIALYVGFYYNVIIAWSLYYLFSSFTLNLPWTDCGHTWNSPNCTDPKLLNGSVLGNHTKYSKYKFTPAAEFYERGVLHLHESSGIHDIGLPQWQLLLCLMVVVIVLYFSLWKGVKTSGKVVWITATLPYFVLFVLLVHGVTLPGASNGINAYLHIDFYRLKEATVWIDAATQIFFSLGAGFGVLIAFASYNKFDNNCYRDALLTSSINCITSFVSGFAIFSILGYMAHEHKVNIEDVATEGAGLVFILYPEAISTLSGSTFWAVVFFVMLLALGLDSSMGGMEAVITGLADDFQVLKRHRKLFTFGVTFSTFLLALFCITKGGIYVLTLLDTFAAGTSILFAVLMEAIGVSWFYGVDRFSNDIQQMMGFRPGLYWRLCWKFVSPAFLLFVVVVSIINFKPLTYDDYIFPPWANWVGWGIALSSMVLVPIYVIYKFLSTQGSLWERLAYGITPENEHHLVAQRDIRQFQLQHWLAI
Sequence of Histamine H2 receptor (P25021 whole entry): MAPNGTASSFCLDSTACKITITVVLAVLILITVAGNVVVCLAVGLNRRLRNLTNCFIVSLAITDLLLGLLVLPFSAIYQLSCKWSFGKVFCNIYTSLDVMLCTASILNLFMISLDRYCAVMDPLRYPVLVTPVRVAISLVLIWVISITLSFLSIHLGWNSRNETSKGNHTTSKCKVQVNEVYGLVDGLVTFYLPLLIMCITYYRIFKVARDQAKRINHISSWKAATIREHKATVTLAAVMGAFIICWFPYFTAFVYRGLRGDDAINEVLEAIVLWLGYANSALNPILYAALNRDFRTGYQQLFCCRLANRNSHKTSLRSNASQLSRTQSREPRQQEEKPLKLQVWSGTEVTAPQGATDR
Sequence of 5-hydroxytryptamine receptor 7 (P34969 whole entry): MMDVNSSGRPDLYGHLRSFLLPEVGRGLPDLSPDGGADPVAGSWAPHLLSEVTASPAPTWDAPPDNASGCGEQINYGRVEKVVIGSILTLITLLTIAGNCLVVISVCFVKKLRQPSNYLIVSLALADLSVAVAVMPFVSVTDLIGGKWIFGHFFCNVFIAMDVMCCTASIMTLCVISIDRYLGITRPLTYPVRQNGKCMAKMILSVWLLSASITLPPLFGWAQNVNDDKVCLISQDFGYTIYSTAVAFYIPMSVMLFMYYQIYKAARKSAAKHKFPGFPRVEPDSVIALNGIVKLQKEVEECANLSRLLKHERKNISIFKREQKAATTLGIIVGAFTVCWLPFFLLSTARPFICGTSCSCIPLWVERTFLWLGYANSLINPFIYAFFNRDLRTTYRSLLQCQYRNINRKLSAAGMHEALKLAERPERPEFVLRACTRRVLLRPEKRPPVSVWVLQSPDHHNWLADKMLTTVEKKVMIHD
Sequence of 5-hydroxytryptamine receptor 1D (P28221 whole entry): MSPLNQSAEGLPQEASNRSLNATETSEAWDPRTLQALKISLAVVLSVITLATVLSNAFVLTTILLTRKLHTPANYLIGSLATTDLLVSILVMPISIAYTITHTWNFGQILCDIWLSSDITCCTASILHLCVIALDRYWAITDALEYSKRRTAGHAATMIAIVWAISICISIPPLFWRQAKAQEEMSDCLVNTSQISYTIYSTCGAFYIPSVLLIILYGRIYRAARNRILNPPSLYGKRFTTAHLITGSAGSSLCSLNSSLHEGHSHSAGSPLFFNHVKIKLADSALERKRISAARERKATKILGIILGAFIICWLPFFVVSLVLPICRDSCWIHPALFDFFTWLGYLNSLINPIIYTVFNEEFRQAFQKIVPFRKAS

Ki [1] [µM]	Ki [2] [µM]	Ki [3] [µM]	Ki [4] [µM]	Ki [5] [µM]	Ki [6] [µM]	Ki [7] [µM]	Ki (Mu-type opioid receptor) [µM]	Ki [8] [µM]	Ki [9] [µM]	Ki [10] [µM]	Ki (D(3) dopamine receptor) [µM]	Ki [11] [µM]	Ki (Histamine H1 receptor) [µM]	Ki [12] [µM]	Ki [13] [µM]	Ki (Histamine H2 receptor) [µM]	Ki [14] [µM]	Ki [15] [µM]	Ki [16] [µM]	Structure (SMILES)
1.44	1.09	1.93	0.0746	1.4	0.0415	> 10	2.21	0.043	0.955	1.58	0.875	0.162	0.909	0.181	2.32	1.4				COc1cccc([C@@H](C)NCCCc2ccccc2Cl)c1 [TECALCET HYDROCHLORIDE]
1.96	0.972	1.45	0.388	0.444			1.3	0.0397		1.57	0.391	0.658		0.842	1.82	2.62	1.7	0.571	2.89	C[C@@H](NCCCc1cccc(C(F)(F)F)c1)c1cccc2ccccc12 [CINACALCET HYDROCHLORIDE]
